Measured values: US8053441B2, “Pyrazolylquinazolinones as potassium channel openers” (Janssen Pharmaceutica N.V., priority 2006, dated 2011)

Biological target: T1, KATP channels (Homo sapiens, UniProt O60706+Q14654)
T1 construct: TE671 human medulloblastoma cells were obtained from ATCC; host or cells: TE671 human medulloblastoma cells
Assay: Potassium Channel Assay (FLIPR membrane potential)
Assay type: cell-based
Set-up: key: A compound was designated as active if it produced greater than or equal to 10% response at 30 μM; A compound was designated as inactive if it produced less than 10% response at 30 μM
Conditions: TE671 human medulloblastoma cells, 30 μM, Membrane Potential Assay Dye
Method: TE671 human medulloblastoma cells were obtained from ATCC and grown in Dulbecco's modified Eagle's medium (DMEM) supplemented with 10% fetal bovine serum, 100 U/ml penicillin and 100 U/ml streptomycine.
The day before testing, the cells were plated in black 96-well plates at 50K/well. On the day of testing, the growth media was removed, then 100 μl of FLIPR buffer (20 mM HEPES, 120 mM NaCl, 2 mM KCl, 2 mM CaCl2, 1 mM MgCl2, 5 mM Glucose) and 100 μl of Membrane Potential Assay Dye (Molecular Devices) dissolved in FLIPR buffer were added to each well. The cells were incubated at room temperature for 15 to 30 min.
The effect of test compounds on KATP channels were evaluated on a fluorometric imaging plate reader (FLIPR, Molecular Devices) at room temperature. After a baseline period, 50 μl of 5× stock solution of test compound prepared in FLIPR buffer was added and fluorescent change was monitored for 3 minutes. After this reading, glyburide, a KATP channel blocker, was added to a final concentration of 5 μM to check the specificity of the test compound as a KATP channel openers. Hyperpolarization resulting from KATP channel opening was observed as a decrease in fluorescent intensity.
Representative compounds of the present invention were tested according to the procedure described above, with results as listed in Table 2 below. Test compound activity was determined as the percent. A compound was designated as active if it produced greater than or equal to 10% response at 30 μM.

T1 sequence (O60706 1-1549 isoform O60706-2): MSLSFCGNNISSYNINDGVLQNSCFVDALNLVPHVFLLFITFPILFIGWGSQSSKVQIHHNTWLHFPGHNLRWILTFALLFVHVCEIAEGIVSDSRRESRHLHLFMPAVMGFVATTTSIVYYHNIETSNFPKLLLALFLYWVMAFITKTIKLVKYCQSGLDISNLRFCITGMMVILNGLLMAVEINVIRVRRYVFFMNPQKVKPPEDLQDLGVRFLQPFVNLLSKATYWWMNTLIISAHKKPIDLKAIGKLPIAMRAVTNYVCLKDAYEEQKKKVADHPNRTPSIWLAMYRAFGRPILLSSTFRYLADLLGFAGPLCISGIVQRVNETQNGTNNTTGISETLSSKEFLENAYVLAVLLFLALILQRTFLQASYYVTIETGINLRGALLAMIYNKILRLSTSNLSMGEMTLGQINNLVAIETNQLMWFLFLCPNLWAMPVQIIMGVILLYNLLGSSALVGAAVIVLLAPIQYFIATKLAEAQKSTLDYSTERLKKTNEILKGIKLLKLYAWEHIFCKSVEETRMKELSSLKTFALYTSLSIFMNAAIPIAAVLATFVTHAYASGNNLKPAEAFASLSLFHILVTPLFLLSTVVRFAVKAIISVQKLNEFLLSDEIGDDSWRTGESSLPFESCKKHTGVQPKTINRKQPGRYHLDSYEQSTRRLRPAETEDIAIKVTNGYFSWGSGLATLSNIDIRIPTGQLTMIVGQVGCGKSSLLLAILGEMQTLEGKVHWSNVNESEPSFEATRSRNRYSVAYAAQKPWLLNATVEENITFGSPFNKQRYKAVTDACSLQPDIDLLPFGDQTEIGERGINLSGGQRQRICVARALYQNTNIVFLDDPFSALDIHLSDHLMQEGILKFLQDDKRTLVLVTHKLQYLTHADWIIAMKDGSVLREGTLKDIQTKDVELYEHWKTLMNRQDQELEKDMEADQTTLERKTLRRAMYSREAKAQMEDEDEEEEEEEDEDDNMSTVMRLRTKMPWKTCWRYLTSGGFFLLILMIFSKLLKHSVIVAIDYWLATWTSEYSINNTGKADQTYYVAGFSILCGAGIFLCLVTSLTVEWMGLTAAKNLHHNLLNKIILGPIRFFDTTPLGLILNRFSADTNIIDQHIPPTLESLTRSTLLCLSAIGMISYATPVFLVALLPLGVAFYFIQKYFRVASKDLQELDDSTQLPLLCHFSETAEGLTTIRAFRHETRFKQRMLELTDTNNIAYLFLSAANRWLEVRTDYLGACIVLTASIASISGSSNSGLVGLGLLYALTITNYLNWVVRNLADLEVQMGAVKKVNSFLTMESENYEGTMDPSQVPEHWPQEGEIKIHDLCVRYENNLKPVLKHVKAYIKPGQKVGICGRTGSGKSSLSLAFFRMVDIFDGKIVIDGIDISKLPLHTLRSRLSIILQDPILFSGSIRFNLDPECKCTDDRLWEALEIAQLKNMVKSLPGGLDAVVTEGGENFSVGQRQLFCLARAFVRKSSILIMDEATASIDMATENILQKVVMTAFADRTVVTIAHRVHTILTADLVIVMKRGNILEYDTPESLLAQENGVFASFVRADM
T1 sequence (Q14654 whole entry): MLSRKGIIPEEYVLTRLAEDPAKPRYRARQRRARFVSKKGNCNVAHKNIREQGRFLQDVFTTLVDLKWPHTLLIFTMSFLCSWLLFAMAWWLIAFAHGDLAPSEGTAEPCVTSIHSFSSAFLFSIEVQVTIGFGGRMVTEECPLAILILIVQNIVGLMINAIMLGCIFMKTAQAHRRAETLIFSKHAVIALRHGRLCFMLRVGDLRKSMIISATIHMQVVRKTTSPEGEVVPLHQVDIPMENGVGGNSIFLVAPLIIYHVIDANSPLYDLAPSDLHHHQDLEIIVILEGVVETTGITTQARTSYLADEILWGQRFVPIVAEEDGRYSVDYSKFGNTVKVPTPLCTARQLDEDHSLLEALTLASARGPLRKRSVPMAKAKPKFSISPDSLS

Row | response | SMILES
1 | active | CC1(c2nc3ccc(Cl)cc3c(=O)[nH]2)CC=NN1 (stereo not shown) [compound 1, 6-Chloro-2-(3-methyl-3,4-dihydro-2H-pyrazol-3-vi)-3H-quinazolin-4-one]
2 | active | CC1(c2nc3ccc(Br)cc3c(=O)[nH]2)CC=NN1 (stereo not shown) [compound 2, 6-Bromo-2-(3-methyl-3,4-dihydro-2H-pyrazol-3-vi)-3H-quinazolin-4-one]
3 | active | CC1(c2nc3cc(C(F)(F)F)ccc3c(=O)[nH]2)CC=NN1 (stereo not shown) [compound 3, 2-(3-Methyl-3,4-dihydro-2H-pyrazol-3-yl)-7-trifluoromethyl-3H-quinazolin-4-one]
4 | active | CCOC(=O)C1=NNC(C)(c2nc3ccc(Cl)cc3c(=O)[nH]2)C1 (stereo not shown) [compound 4, 5-(6-Chloro-4-oxo-3,4-dihydro-quinazolin-2-yl)-5-methyl-4,5-dihydro-1H-pyrazole-3-carboxylic acid ethyl ester]
